Assay results as given in patent US6288091A, “Antiherpes virus compounds and methods for their preparation and use” (Boehringer Ingelheim Ltd., priority 1999, dated 2001).
Read-outs that look alike come from different tables or passages of the source.

What was measured:
[1] = molecular target: T1, HSV-1 helicase-primase (Human herpesvirus 1, UniProt P10189+P10236); experiment: HSV-1 DNA-dependent ATPase assay (inhibition of HSV-1 helicase-primase); format: biochemical
T1 construct: made in house; host or cells: Sf21 insect cells triply infected with recombinant baculoviruses (UL5, UL8, UL52)
Summary of the method: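 Holoenzyme (UL5/UL8/UL52) expressed in baculovirus-infected Sf21 cells and purified, used at 3 μg/mL with 4 mM ATP and 25 μM primed M13 ssDNA in HEPES pH 7.5, 5.5 mM MgCl2, 3.3% DMSO. Incubated 20 min at 34°. Released phosphate read by malachite green at 650 nm, and activity taken from net absorbance with versus without inhibitor.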

[2] = system: HCMV (strain AD169); experiment: Inhibition of HCMV replication, plaque reduction assay (PRA, Hs-68 cells); format: cell-based, Human Cytomegalovirus (HCMV); details: read-out: PRA CMV EC50
Summary of the method: (§1)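 Hs-68 monolayers (80–90% confluent) were infected with ~50 PFU HCMV AD169 for 2 h at 37°, then given compound in DMEM/5% inactivated FBS, refreshed after 4 days and kept 4 more days. Plaques were counted after formaldehyde fixation and crystal violet staining. EC50 derives from percent plaque reduction versus untreated wells.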

[3] = as above; format: cell-based, Human Cytomegalovirus (HCMV); details: human, Group 1 Table 5 entries, read-out: Cytotoxic at this concentration (footnote *, PRA CMV)
Summary of the method: as §1

[4] = Human betaherpesvirus 5, AD169, Hs68, Group 1 Table 5 entries
[5] = Human betaherpesvirus 5, AD169, Hs68, Group 1 Table 6 entries
[6] = Human betaherpesvirus 5, AD169, Hs68, Group 2 Table 1 entries

T1 sequence (P10192 whole entry): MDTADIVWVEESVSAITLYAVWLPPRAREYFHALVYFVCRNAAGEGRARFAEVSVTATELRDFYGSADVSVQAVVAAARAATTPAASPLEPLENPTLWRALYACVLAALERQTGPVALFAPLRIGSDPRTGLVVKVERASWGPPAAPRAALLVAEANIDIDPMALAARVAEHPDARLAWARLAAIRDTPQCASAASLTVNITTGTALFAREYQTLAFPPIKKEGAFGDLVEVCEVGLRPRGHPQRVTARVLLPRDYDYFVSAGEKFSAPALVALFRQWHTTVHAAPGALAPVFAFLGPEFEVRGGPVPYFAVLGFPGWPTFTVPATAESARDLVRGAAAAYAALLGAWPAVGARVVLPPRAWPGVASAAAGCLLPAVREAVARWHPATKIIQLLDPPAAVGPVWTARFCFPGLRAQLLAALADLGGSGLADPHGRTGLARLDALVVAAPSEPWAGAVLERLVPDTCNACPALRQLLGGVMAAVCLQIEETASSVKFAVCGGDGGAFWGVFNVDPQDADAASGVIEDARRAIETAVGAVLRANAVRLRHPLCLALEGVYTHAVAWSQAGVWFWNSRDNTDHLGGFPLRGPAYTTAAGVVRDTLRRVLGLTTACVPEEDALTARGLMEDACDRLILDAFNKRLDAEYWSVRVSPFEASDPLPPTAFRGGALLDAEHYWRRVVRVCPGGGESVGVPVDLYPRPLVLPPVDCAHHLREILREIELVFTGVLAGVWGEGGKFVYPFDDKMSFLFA
T1 sequence (P10236 whole entry): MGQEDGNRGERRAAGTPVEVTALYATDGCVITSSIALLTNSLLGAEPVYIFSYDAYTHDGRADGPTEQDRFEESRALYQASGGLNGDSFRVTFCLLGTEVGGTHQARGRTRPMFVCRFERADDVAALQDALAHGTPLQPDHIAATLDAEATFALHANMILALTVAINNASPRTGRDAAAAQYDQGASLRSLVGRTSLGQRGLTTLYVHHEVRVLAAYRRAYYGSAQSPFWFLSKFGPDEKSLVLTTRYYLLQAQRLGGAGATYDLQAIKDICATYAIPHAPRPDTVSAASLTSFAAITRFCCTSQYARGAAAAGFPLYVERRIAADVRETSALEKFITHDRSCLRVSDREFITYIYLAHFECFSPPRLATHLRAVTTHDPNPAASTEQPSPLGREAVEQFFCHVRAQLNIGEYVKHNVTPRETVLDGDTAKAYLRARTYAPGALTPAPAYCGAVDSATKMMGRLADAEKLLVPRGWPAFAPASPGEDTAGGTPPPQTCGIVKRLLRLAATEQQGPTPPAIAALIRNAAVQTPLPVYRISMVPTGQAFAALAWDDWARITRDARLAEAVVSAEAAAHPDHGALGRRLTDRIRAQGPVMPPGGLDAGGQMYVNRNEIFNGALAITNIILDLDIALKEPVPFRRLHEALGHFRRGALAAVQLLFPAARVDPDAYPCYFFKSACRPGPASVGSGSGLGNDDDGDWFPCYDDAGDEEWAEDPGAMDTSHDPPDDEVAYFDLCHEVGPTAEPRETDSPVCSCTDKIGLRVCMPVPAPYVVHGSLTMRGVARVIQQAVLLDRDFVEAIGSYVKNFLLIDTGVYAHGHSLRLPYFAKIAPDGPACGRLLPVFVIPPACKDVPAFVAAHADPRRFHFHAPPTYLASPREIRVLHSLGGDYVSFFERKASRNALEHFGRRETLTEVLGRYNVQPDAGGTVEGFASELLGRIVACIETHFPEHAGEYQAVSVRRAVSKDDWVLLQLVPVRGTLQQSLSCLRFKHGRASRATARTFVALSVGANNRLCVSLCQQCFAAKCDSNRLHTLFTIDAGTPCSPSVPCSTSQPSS
T1 sequence (P10189 whole entry): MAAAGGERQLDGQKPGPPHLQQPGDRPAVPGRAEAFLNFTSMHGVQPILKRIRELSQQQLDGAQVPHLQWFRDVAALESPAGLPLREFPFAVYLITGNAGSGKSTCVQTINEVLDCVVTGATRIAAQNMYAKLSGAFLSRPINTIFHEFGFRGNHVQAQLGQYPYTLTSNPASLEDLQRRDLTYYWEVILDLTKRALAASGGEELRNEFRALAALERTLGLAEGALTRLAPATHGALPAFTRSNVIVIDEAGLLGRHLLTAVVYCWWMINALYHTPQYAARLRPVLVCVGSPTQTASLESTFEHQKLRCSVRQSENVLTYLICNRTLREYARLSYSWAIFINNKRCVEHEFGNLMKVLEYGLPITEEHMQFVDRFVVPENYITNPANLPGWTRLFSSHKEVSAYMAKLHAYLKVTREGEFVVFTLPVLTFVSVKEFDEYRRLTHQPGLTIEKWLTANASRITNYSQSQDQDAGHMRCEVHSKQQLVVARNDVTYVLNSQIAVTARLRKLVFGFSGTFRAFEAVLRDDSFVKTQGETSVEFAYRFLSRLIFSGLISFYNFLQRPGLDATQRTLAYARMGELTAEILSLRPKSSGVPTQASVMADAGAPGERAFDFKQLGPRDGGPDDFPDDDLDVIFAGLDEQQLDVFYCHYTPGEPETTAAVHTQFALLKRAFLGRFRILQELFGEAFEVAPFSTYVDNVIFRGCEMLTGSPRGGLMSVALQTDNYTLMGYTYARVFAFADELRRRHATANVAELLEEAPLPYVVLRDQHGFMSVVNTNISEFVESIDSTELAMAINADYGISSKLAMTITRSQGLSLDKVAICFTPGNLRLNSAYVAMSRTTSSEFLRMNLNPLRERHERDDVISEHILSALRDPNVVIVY

SMILES	IC50 ([1]; Group 1 Table 6 entries) [µM]	EC50 [2, 5] [µM]	IC50 ([1]; Group 2 Table 1 entries) [µM]	EC50 [2, 6] [µM]	further results
CN(C(=O)OC(C)(C)C)[C@@H](Cc1ccccc1)C(=O)Nc1ccc(-c2csc(N)n2)cc1 [Example 10]	–	–	–	–	IC50 ([1]; Group 1 Table 5 entries): 0.09 µM; EC50 [2, 4]: 12 µM
Nc1nc(-c2ccc(NC(=O)[C@H]3CCC(=O)N3CC3CCCCC3)cc2)cs1 [Example 3]	6.2	45	–	–	–
CCCC(CCC)NC(=O)Nc1ccc(-c2csc(N)n2)cc1 [Example 11]	–	–	17	13	–
Nc1nc(-c2ccc(NC(=O)[C@H](Cc3ccccc3)NS(=O)(=O)N3CCOCC3)cc2)cs1 [Example 25]	–	–	–	–	IC50 ([1]; Group 1 Table 5 entries): 0.17 µM; EC50 [2, 4]: 55 µM
CCCCN(CCCC)C(=O)Nc1ccc(-c2csc(NC(=O)OC(C)(C)C)n2)cc1 [Example 15]	–	–	> 100	1.1	–
CN(CCc1ccccn1)C(=O)Nc1ccc(-c2csc(NC(=O)OC(C)(C)C)n2)cc1 [Example 14]	–	–	> 100	2	–
Nc1nc(-c2ccc(NC(=O)[C@@H]3CCCN3C(=O)c3ccccc3)cc2)cs1 [Example 5]	1.6	> 89	–	–	–
CC(C)(C)OC(=O)N1CCC[C@@H]1C(=O)Nc1ccc(-c2csc(N)n2)cc1 [Example 8]	7.5	> 83	–	–	–
CC(C)(C)CC(=O)N[C@@H](Cc1ccccc1)C(=O)Nc1ccc(-c2csc(N)n2)cc1 [Example 19]	–	–	–	–	IC50 ([1]; Group 1 Table 5 entries): 0.051 µM; EC50 [2, 4]: 21 µM; MCC at 192 h [3]: 21 µM
Nc1nc(-c2ccc(NC(=O)[C@H]3CCCN3C(=O)C3CCCCC3)cc2)cs1 [Example 10]	0.13	48	–	–	–
Nc1nc(-c2ccc(NC(=O)[C@H]3CCCN3C(=O)c3ccccc3)cc2)cs1 [Example 9]	1.6	> 88	–	–	–
Nc1nc(-c2ccc(NC(=O)[C@H](Cc3ccccc3)N(Cc3ccccc3)C(=O)C3CCCCC3)cc2)cs1 [Example 11]	–	–	–	–	IC50 ([1]; Group 1 Table 5 entries): 0.4 µM; EC50 [2, 4]: 8 µM
CN(CCc1ccccn1)C(=O)Nc1ccc(-c2csc(N)n2)cc1 [Example 4]	–	–	3.7	> 144	–
CCCCN(CCCC)C(=O)Nc1ccc(-c2csc(N)n2)cc1 [Example 1, N-{4-(2-Amino-4-thiazolyl)phenyl}-N,N-dibutylurea]	–	–	4.2	37	–
CCCCN(CCCC)C(=O)C(=O)Nc1ccc(-c2csc(N)n2)cc1 [Example 1, N-{4-(2-Amino-4-thiazolyl)phenyl}-N',N'-dibutylethanediamide]	–	–	–	–	IC50 ([1]; Group 2 Table 2 entries (A = C(O))): 7 µM; EC50 ([2]; Human betaherpesvirus 5, AD169, Hs68, Group 2 Table 2 entries): > 4 µM
CC(C)(C)NC(=O)Nc1ccc(-c2csc(N)n2)cc1 [Example 12]	–	–	20	> 32	–
Nc1nc(-c2ccc(NC(=O)[C@@H]3CCCN3C(=O)C3CCCCC3)cc2)cs1 [Example 6]	0.052	22	–	–	–
Nc1nc(-c2ccc(NC(=O)[C@@H]3CCC(=O)N3Cc3ccccc3)cc2)cs1 [Example 2]	6.2	50	–	–	–
